What is called EC50 is the concentration giving half of the maximal effect. The term AUC(0-t) denotes the area under the concentration-time curve up to a stated or last time point. A word on the clearance: it is the volume of plasma or blood freed of the substance per unit of time. A high value points to efficient removal. One may read the half-life as how long it takes for the measured level to halve. Read a high half-life as slow loss. In general, Cmax refers to the maximum level reached in the sampled fluid or tissue.

Data set [1] in a line: Protein binding assay (HT dialysis), rat plasma. The data set is classed as in vitro ADME. Particulars: pH 7.4, Mean ± SEM, n = 3, read-out: Fu Plasma. The method, then:
(§1) Unbound fractions of test compounds in plasma, brain homogenate and liver microsomes were determined using high-throughput dialysis (HT dialysis). Briefly, dialysis membranes were soaked in deionized water for 20 minutes and then in deionized water with 30% ethanol for 15 minutes and finally in phosphate buffer until use. Membranes were rinsed in phosphate buffer before assembling. The membranes were layered between teflon bars of dialysis assembly. Stock solutions of test compound/comparative compound were prepared at 10 mM in DMSO, diluted to 1 mM in acetonitrile and further diluted to 100 μM in mixture of water and acetonitrile (1:1 v/v). Human plasma (pool of 3) was prepared from human blood (3 donors) by centrifuging at 4000 rpm for 10 min at 4° C. Rat and dog blood were obtained on the day of the study and centrifuged to obtain plasma. Rat brains were isolated, cleaned and homogenized with 2 volumes of buffer (3 fold dilution). Liver microsomes were prepared at 0.5 mg/mL in phosphate buffer (100 mM, pH 7.4). The dialysate chambers were loaded with 150 μL of 100 mM phosphate buffer (pH 7.4) in triplicates. The matrix chambers were loaded with 150 μL of the plasma or brain homogenate or microsomal suspension spiked with test compound/comparative compound at a final concentration of 1 μM. 50 μL of the sample was removed from both the chambers at 0 h. The plate was sealed and incubated at 37° C. for 6 h at 100 rpm. After 6 h, 50 μL of the sample was removed from both the chambers. Equal volumes of buffer or human plasma/microsomal suspension were added to the plasma/microsomal and buffer samples respectively to create identical sample matrices for analysis. The samples were precipitated with 150 μL of acetonitrile containing fluoxetine as an internal standard. All the samples were centrifuged at 10000 rpm for 10 minutes at 4° C.

The nature of data set [2]: Protein binding assay (HT dialysis), dog plasma. The data set is classed as in vitro ADME. Particulars: pH 7.4, Mean ± SEM, n = 3, read-out: Fu Plasma (converted). The method, then:
as §1

Data set [3] is described as follows: Protein binding assay (HT dialysis), human plasma. It counts as in vitro ADME. The following applies: pH 7.4, Mean ± SEM, n = 3, read-out: Fu Plasma (converted). The method, then: as §1
Data set [4] is described as follows: Protein binding assay (HT dialysis), rat brain homogenate. The data set is classed as in vitro ADME. The following applies: pH 7.4, Mean ± SEM, n = 3, read-out: Fu Brain. The method, then: as §1
The nature of data set [5]: Protein binding assay (HT dialysis), rat liver microsomes. The data set is classed as in vitro ADME. The following applies: pH 7.4, Rat liver microsomes 0.5 mg/mL, Mean ± SEM, n = 3, read-out: Fu Microsomes. The method, then: as §1
A general note: Microsomes from liver hold many membrane-bound enzymes, among them those of drug oxidation.

Data set [6] can be described thus: Protein binding assay (HT dialysis), dog liver microsomes. The following applies: pH 7.4, Dog liver microsomes 0.5 mg/mL, Mean ± SEM, n = 3, read-out: Fu Microsomes (converted). It counts as in vitro ADME. The method, then:
as §1

Data set [7] in a line: Protein binding assay (HT dialysis), human liver microsomes. It counts as in vitro ADME. The following applies: pH 7.4, Human liver microsomes 0.5 mg/mL, Mean ± SEM, n = 3, read-out: Fu Microsomes (converted). The method, then: as §1
Data set [8] has as its target T1, human Muscarinic M1 receptor (Homo sapiens, UniProt P11229).
T1 sequence (P11229 1-460): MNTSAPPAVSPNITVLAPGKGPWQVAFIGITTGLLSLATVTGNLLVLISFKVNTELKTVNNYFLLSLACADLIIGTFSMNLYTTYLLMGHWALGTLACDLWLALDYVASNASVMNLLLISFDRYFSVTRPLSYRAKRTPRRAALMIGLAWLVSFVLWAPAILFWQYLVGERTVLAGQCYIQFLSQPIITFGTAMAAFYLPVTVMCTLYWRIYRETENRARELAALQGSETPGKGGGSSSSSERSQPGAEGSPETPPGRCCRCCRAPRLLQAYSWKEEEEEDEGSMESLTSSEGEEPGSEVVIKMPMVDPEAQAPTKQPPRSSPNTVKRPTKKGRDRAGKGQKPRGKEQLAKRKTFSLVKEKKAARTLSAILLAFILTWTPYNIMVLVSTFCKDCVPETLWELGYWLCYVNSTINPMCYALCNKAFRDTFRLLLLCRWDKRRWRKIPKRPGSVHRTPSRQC
Kind of data set: Allosteric potency EC50 for muscarinic M1 receptor, CHO pCRE-Luc reporter cell assay. It counts as cell-based. The following applies: in presence of EC20 of acetylcholine; CHO cells, luciferase reporter, 4 h. The method, then: A stable CHO cell line expressing recombinant human Muscarinic M1 receptor and pCRE-Luc reporter system was used for cell-based assay. The assay offers a non-radioactive based approach to determine binding of a compound to GPCRs. In this specific assay, the level of intracellular cyclic AMP which is modulated by activation or inhibition of the receptor is measured. The recombinant cells harbor luciferase reporter gene under the control of cAMP response element.
The above cells were grown in 96 well clear bottom white plates in Hams F12 medium containing 10% fetal bovine serum (FBS). Prior to the addition of compounds or standard agonist, cells were serum starved overnight. Increasing concentrations of test compounds were added along with EC20 of acetylcholine in OptiMEM medium to the cells. The incubation was continued at 37° C. in CO2 incubator for 4 h. Medium was removed and cells were washed with phosphate buffered saline. The cells were lysed and luciferase activity was measured in a Luminometer. Luminescence units were plotted against the compound concentrations using Graphpad software. EC50 values of the compounds were defined as the concentration required in stimulating the luciferase activity by 50% in presence of EC20 of acetylcholine.
(In a reporter assay the amount or activity of a reporter protein is the signal.)

The nature of data set [9]: Rodent pharmacokinetic study. It counts as in vivo, Male Wistar rats. The following applies: rat. The method, then:
Male Wistar rats (260±50 grams) were used as experimental animals. Animals were housed individually in polypropylene cage. Two days prior to study, male Wistar rats were anesthetized with isoflurane for surgical placement of jugular vein catheter. Rats were randomly divided for oral (3 mg/kg) and intravenous (i.v) (1 mg/kg) dosing (n=3/group) and fasted overnight before oral dosing (p.o.). However, rats allocated to intravenous (i.v.) dosing food and water was provided ad libitum.
At pre-determined point, blood was collected through jugular vein and replenished with an equivalent volume of normal saline. Collected blood was transferred into a labeled eppendorf tube containing 10 μL of heparin as an anticoagulant. Typically blood samples were collected at following time points: 0.08, 0.25, 0.5, 1, 2, 4, 6, 8, and 24 h post dose. Blood was centrifuged at 4000 rpm for 10 minutes. Plasma was separated and stored frozen at −80° C. until analysis. The concentrations of the test compounds were quantified in plasma by qualified LC-MS/MS method using suitable extraction technique. The test compounds were quantified in the calibration range around 1-1000 ng/mL in plasma. Study samples were analyzed using calibration samples in the batch and quality control samples spread across the batch.
Pharmacokinetic parameters Cmax, AUCt, T1/2, clearance and bioavailability (F) were calculated by non-compartmental model using standard non-compartmental model by using Phoenix WinNonlin 6.0.2 or 6.0.3 version Software package and the results are tabulated below.

Data set [10] can be described thus: Rodent brain penetration study. The data set is classed as in vivo, Male Wistar rats. Particulars: male, Wistar, brain/plasma, po; rat, 3 mg/kg, p.o. @ 1.0 hr; read-out: Single dose Rat Brain Penetration (Cb/Cp). The method, then:
Male Wistar rats (260±40 grams) were used as experimental animals. Three animals were housed in each cage. Animals were given water and food ad libitum throughout the experiment and maintained on a 12 h light/dark cycle.
Brain penetration was determined in discrete manner in rats. One day prior to dosing day, male Wistar rats were acclimatized and randomly grouped according to their weight. At each time point (0.5, 1 and 2 h) n=3 animals were used.
The test compounds were suitably preformulated and administered orally at (free base equivalent) 3 mg/kg. Blood samples were removed via cardiac puncture by using isoflurane anesthesia. The animals were sacrificed to collect brain tissue. Plasma was separated and brain samples were homogenized and stored frozen at −20° C. until analysis. The concentrations of the test compounds in plasma and brain were determined using LC-MS/MS method.
The test compounds were quantified in plasma and brain homogenate by qualified LC-MS/MS method using suitable extraction technique. The test compounds were quantified in the calibration range of 1-500 ng/mL in plasma and brain homogenate. Study samples were analyzed using calibration samples in the batch and quality control samples spread across the batch.

Where [11] appears, read: male, Wistar, plasma, iv, i.v. 1 mg/kg.
Where [12] appears, read: male, Wistar, plasma, oral 3 mg/kg.

As to `COc1ccc(Cc2cc3c(cc2C)CN([C@H]2CCCC[C@@H]2O)C3=O)cc1` [Comparative compound, reference compound], the fraction unbound at 6 h, 1 μM was 0.0141 ± 0.003 in [1]; 0.0069 in data set [2]; 0.0063 in data set [3]; 0.0022 ± 0.001 in data set [4]; 0.551 ± 0.013 in data set [5]; 0.709 in data set [6]. In addition, the fraction unbound at 6 h, 1 μM in data set [7] was 0.48.

In the case of `Cc1nc2c(cc1Cc1ccc(-c3cnn(C)c3)nc1)C(=O)N([C@H]1CCCC[C@@H]1O)C2` [Example 2, 6-(1S,2S-2-Hydroxycyclohexyl)-2-methyl-3-[2-(1-methyl-1H-pyrazol-4-yl)pyridin-5-ylmethyl]-6,7-dihydropyrrolo[3,4-b]pyridin-5-one], in data set [8], the EC50 came out at 288 nM.

For the compound `Cc1nc2c(cc1Cc1ccc(-c3cscn3)cc1)C(=O)N([C@H]1CCCC[C@@H]1O)C2` [Example 4, 6-(1S,2S-2-Hydroxycyclohexyl)-2-methyl-3-(4-thiazol-4-ylbenzyl)-6,7-dihydropyrrolo[3,4-b]pyridin-5-one], in data set [8], the EC50 was 107 nM.

`Cc1nc2c(cc1Cc1ccc(F)cc1)C(=O)N([C@H]1CCCC[C@@H]1O)C2` [Example 9, 6-(1S,2S-2-Hydroxycyclohexyl)-2-methyl-3-(4-fluorobenzyl)-6,7-dihydropyrrolo[3,4-b]pyridin-5-one]: in [8], the EC50 came to 1500 nM. In data set [9] (setting [11]), the AUC(0-t) worked out at 1220 ± 25 ng·h/mL, the clearance came to 13.5 ± 0.3 mL/min/kg and the half-life was 1.3 ± 0.3 h. In addition, in [9] (setting [12]), the AUC(0-t) is 1290 ± 387 ng·h/mL, the Cmax came to 592 ± 142 ng/mL and the half-life was 1.1 ± 0.4 h. For the same compound, the F in [9] (oral 3 mg/kg vs i.v. 1 mg/kg) is 35 ± 11%. Moreover, in data set [10], the Kp at 1 h was 0.25 ± 0.04.

For `Cc1nc2c(cc1Cc1cccc(F)c1)C(=O)N([C@H]1CCCC[C@@H]1O)C2` [Example 10, 6-(1S,2S-2-Hydroxycyclohexyl)-2-methyl-3-(3-fluorobenzyl)-6,7-dihydropyrrolo[3,4-b]pyridin-5-one], in [8], the EC50 amounted to 2780 nM.

As to `COc1ccc(Cc2cc3c(nc2C)CN(C2COCCC2O)C3=O)cc1` (centres unmarked) [Example 13, 6-(4-Hydroxytetrahydropyran-3-yl)-3-(4-methoxybenzyl)-2-methyl-6,7-dihydropyrrolo[3,4-b]pyridin-5-one], in data set [8], the EC50 was found to be 669 nM.

For the compound `COc1ccc(Cc2cc3c(nc2C)CCN([C@H]2CCCC[C@@H]2O)C3=O)cc1` [Example 14, 6-(1S,2S-2-Hydroxycyclohexyl)-2-methyl-3-(4-methoxybenzyl)-7,8-dihydro-6H-[1,6]naphthyridin-5-one], the EC50 in data set [8] worked out at 643 nM.

With `Cc1nc(-c2ccc(Cc3cc4c(nc3C)CN(C3CCOCC3)C4=O)cc2)co1` [Example 16, 6-(Tetrahydropyran-4-yl)-2-methyl-3-[4-(2-methyl-oxazol-4-yl)-benzyl]-6,7-dihydropyrrolo[3,4-b]pyridin-5-one], the EC50 in data set [8] came to 1320 nM.

As to `Cc1nc2c(cc1Cc1cccc(Cl)c1)C(=O)N([C@H]1CCCC[C@@H]1O)CC2` [Example 18, 6-(1S,2S-2-Hydroxycyclohexyl)-2-methyl-3-(3-chlorobenzyl)-7,8-dihydro-6H-[1,6]naphthyridin-5-one], in [8], the EC50 came to 774 nM.

Take `Cc1nc2c(cc1Cc1ccc(F)c(F)c1)C(=O)N([C@H]1CCCC[C@@H]1O)CC2` [Example 19, 6-(1S,2S-2-Hydroxycyclohexyl)-2-methyl-3-(3,4-difluorobenzyl)-7,8-dihydro-6H-[1,6]naphthyridin-5-one]: in data set [8], the EC50 was determined as 972 nM.

On to `COc1cccc(Cc2cc3c(nc2C)CCN([C@H]2CCCC[C@@H]2O)C3=O)c1` [Example 24, 6-(1S,2S-2-Hydroxycyclohexyl)-2-methyl-3-(3-methoxybenzyl)-7,8-dihydro-6H-[1,6]naphthyridin-5-one], for which the EC50 in data set [8] is 1210 nM.

On to `Cc1nc2c(cc1Cc1ccnc(F)c1)C(=O)N([C@H]1CCCC[C@@H]1O)C2` [Example 28, 6-(1S,2S-2-Hydroxycyclohexyl)-2-methyl-3-(2-fluoropyridin-4-ylmethyl)-6,7-dihydropyrrolo[3,4-b]pyridin-5-one], for which the EC50 in data set [8] came out at 929 nM.

(Values after patent publication US12156871B2, “Substituted azacycles as muscarinic M1 receptor positive allosteric modulators” (SUVEN LIFE SCIENCES LIMITED, priority 2017, dated 2024).)
